Measured values: US11613785B2, “Predictive and diagnostic methods for prostate cancer” (OnkosXcel Therapeutics, LLC, priority 2017, dated 2023)

Legend:
[1] = test system: TRAMP mouse model of NEPC; experiment: Efficacy study (tumor volume) in transgenic mouse model of NEPC (TRAMP mouse); assay type: in vivo; conditions: TRAMP mice; talabostat mesylate 20 μg qd p.o.; PD-1 antagonist 10 mg/kg i.p. twice weekly
Description: Efficacy Study of Talabostat Mesylate and PD-1 Antagonist in Transgenic Mouse Model of NEPC (TRAMP Mouse)
Reagents and Antibodies: RPMI-1640 medium (Catalog No.: A1049101), Glutamax (Catalog No.: 35050061), Trypsin-EDTA (0.25%) (Catalog No.: 25200-056), Penicillin-Streptomycin (Catalog No.: 15070-063), HBSS (Catalog No.: 14175-095) are procured form Gibco, while Fetal bovine serum (FBS) (Catalog No.: 004-001-1A) is purchased from Biological Industries. The anti-PD-1 antibody (PD-1 antagonist (clone: RMPI-14, Catalog no: BE0146)) is supplied by Bioxcell at 6.61 mg/ml. Stock solutions of PD-1 antagonist, at 1 mg/ml concentrations are prepared and kept at 4° C. prior to use. Dosing solutions of PD-1 antagonist are prepared freshly at a concentration of 1 mg/ml, before every administration in sterile phosphate buffered saline (PBS), pH 7.0 and administered a dose of 10 mg/kg, intraperitoneally (i.p) into, 20 g mouse. […]
Tumor size and body weights are measured twice weekly. Tumor volumes are measured twice per week in two dimensions using a caliper, and the volume are expressed in mm^3 using the formula: V=0.5 a×b^2 where a and b are the length and width of the tumor, respectively. […] Tumor volume is expressed in mm^3, is measured with caliper on day 5, 8, 12, 15, 19, 22, 26 and day 29.

[2] = test system: NK cells, macrophages, FoxP3+ Tregs in tumor; experiment: Immunophenotyping of tumor samples by RT-PCR; assay type: in vivo; conditions: TRAMP mouse tumor samples
Method: Immunophenotyping of tumor samples by RT-PCR: Tumor RNA samples are extracted from the frozen tumor tissues using the Trizol reagent. Reverse transcription is carried out using a kit from Takara (Catalog No. #RR047A). Quantitative PCR are conducted using a master mix from Invitrogen (Catalog No. #4309155) on an ABI 7900HT Fast Real-Time PCR System. The results are analyzed using a Delta Ct Method. The marker gene and respective oligo sequence used in this study are from the NIH q-RT-PCR primer database (mouseqprimerdepot.nih.gov) these are associated with the Ncrl and Pfrl (NK cell receptor) a marker characteristic to the NK cell and their activation respectively, while the Gmbz is meant for quantifying the release of granzyme B and the FoxP3 associated with CD25+CD4+ Tregs. Statistical Analysis: A one-way ANOVA is also used to assess the statistical difference between the vehicle group and all other groups in the blood sample immune-phenotyping and q-RT-PCR assay as well as on the microarray samples on the indicated day. All the data is analyzed using GraphPad Prism 5. p<0.05 is statistically significant (*, p<0.05; **, p<0.01; ***, p<0.001).

talabostat mesylate
tumor reduction (tumor volume) [1]: significant effect | FoxP3+ Treg population (relative mRNA expression of FoxP3) in tumor samples [2]: reduction in the FoxP3 population
